From the NIST ThermoML archive (doi:10.1016/j.fluid.2012.12.001)

Assay: an = ratio of the nth substance listed
Conditions: for viscosity / mass density: 101 kPa, Liquid; for viscosity: Capillary tube (Ostwald / Ubbelohde) method; for mass density: Vibrating tube method; for surface tension liquid-gas: Capillary rise

CC(O)C(=O)O (centres undefined) [2-hydroxypropanoic acid] + C[N+](C)(C)CCO.[Cl-]
Conditions	mass density [kg/m3]	surface tension liquid-gas [mN/m]	viscosity [mPa·s]
298.15 K, a1 = 1.3	1166.3	–	722.55
298.15 K, a1 = 1.5	1174.9	–	615.62
298.15 K, a1 = 2	1179.3	–	536.28
298.15 K, a1 = 2.5	1184.7	–	494.73
298.15 K, a1 = 3	1189.3	–	437.53
298.15 K, a1 = 3.5	1193.2	–	418.14
298.15 K, a1 = 5	1200.6	–	378.56
298.15 K, a1 = 8	1208	–	341.27
298.15 K, a1 = 10	1211.3	–	321.5
298.15 K, a1 = 15	1173.2	–	226.94
298.2 K, a1 = 2	–	48	–
303.15 K, a1 = 1.3	1163.1	–	508.17
303.15 K, a1 = 1.5	1171.4	–	428.98
303.15 K, a1 = 2	1175.8	–	370.38
303.15 K, a1 = 2.5	1181.1	–	341.17
303.15 K, a1 = 3	1185.6	–	300.21
303.15 K, a1 = 3.5	1189.4	–	285.25
303.15 K, a1 = 5	1196.7	–	254.91
303.15 K, a1 = 8	1204	–	226.58
303.15 K, a1 = 10	1207.1	–	213.35
303.15 K, a1 = 15	1207.1	–	163.42
303.3 K, a1 = 2	–	47.6	–
308.15 K, a1 = 1.3	1160	–	364.59
308.15 K, a1 = 1.5	1168.2	–	304.96
308.15 K, a1 = 2	1172.5	–	263.28
308.15 K, a1 = 2.5	1177.7	–	241.21
308.15 K, a1 = 3	1182.1	–	211.64
308.15 K, a1 = 3.5	1185.9	–	200.01
308.15 K, a1 = 5	1193	–	176.99
308.15 K, a1 = 8	1200.1	–	155.91
308.15 K, a1 = 10	1203	–	146.37
308.15 K, a1 = 15	1203	–	146.37
308.3 K, a1 = 2	–	47.3	–
313.15 K, a1 = 1.3	1157	–	267.49
313.15 K, a1 = 1.5	1165	–	222.55
313.15 K, a1 = 2	1169.3	–	191.68
313.15 K, a1 = 2.5	1174.4	–	174.9
313.15 K, a1 = 3	1178.6	–	153.04
313.15 K, a1 = 3.5	1182.3	–	144.01
313.15 K, a1 = 5	1189.3	–	126.42
313.15 K, a1 = 8	1196.2	–	110.53
313.15 K, a1 = 10	1199	–	103.52
313.15 K, a1 = 15	1199	–	103.52
313.5 K, a1 = 2	–	47	–
318.15 K, a1 = 1.3	1154	–	200.31
318.15 K, a1 = 1.5	1161.9	–	165.87
318.15 K, a1 = 2	1166.2	–	142.7
318.15 K, a1 = 2.5	1171.1	–	129.75
318.15 K, a1 = 3	1175.2	–	113.34
318.15 K, a1 = 3.5	1178.8	–	106.26
318.15 K, a1 = 5	1185.6	–	92.66
318.15 K, a1 = 8	1192.3	–	80.53
318.15 K, a1 = 10	1195	–	75.26
318.15 K, a1 = 15	1195	–	75.26
319.2 K, a1 = 2	–	46.7	–
323.15 K, a1 = 1.3	1151.1	–	152.8
323.15 K, a1 = 1.5	1158.9	–	126.22
323.15 K, a1 = 2	1163	–	108.45
323.15 K, a1 = 2.5	1167.9	–	98.3
323.15 K, a1 = 3	1171.8	–	85.77
323.15 K, a1 = 3.5	1175.3	–	80.16
323.15 K, a1 = 5	1181.9	–	69.53
323.15 K, a1 = 8	1188.4	–	60.12
323.15 K, a1 = 10	1191	–	56.1
323.15 K, a1 = 15	1191	–	56.1
323.5 K, a1 = 2	–	46.5	–
328.15 K, a1 = 1.3	1148.2	–	118.6
328.15 K, a1 = 1.5	1155.8	–	97.77
328.15 K, a1 = 2	1159.9	–	83.99
328.15 K, a1 = 2.5	1164.6	–	75.93
328.15 K, a1 = 3	1168.4	–	66.19
328.15 K, a1 = 3.5	1171.8	–	61.71
328.15 K, a1 = 5	1178.3	–	53.28
328.15 K, a1 = 8	1184.5	–	45.88
328.15 K, a1 = 10	1186.9	–	42.76
328.15 K, a1 = 15	1186.9	–	42.76
328.6 K, a1 = 2	–	46.2	–
333.15 K, a1 = 1.3	1145.3	–	93.55
333.15 K, a1 = 1.5	1152.7	–	76.99
333.15 K, a1 = 2	1156.7	–	66.16
333.15 K, a1 = 2.5	1161.3	–	59.67
333.15 K, a1 = 3	1165	–	52
333.15 K, a1 = 3.5	1168.3	–	48.38
333.15 K, a1 = 5	1174.6	–	41.63
333.15 K, a1 = 8	1180.5	–	35.72
333.15 K, a1 = 10	1182.9	–	33.26
333.15 K, a1 = 15	1182.9	–	33.26
333.2 K, a1 = 2	–	46	–
338.1 K, a1 = 2	–	45.7	–
338.15 K, a1 = 1.3	1142.4	–	74.84
338.15 K, a1 = 1.5	1149.7	–	61.57
338.15 K, a1 = 2	1153.6	–	53.08
338.15 K, a1 = 2.5	1158	–	47.66
338.15 K, a1 = 3	1161.6	–	41.53
338.15 K, a1 = 3.5	1164.8	–	38.58
338.15 K, a1 = 5	1170.9	–	33.1
338.15 K, a1 = 8	1176.6	–	28.33
338.15 K, a1 = 10	1178.8	–	26.35
338.15 K, a1 = 15	1178.8	–	26.35
343.15 K, a1 = 1.3	1139.6	–	60.71
343.15 K, a1 = 1.5	1146.7	–	49.92
343.15 K, a1 = 2	1150.5	–	43.05
343.15 K, a1 = 2.5	1154.8	–	38.64
343.15 K, a1 = 3	1158.2	–	33.66
343.15 K, a1 = 3.5	1161.3	–	31.24
343.15 K, a1 = 5	1167.2	–	26.74
343.15 K, a1 = 8	1172.7	–	22.83
343.15 K, a1 = 10	1174.7	–	21.23
343.15 K, a1 = 15	1174.7	–	21.23
348.15 K, a1 = 1.3	1136.7	–	49.84
348.15 K, a1 = 1.5	1143.7	–	41.01
348.15 K, a1 = 2	1147.4	–	35.4
348.15 K, a1 = 2.5	1151.5	–	31.75
348.15 K, a1 = 3	1154.9	–	27.66
348.15 K, a1 = 3.5	1157.8	–	25.64
348.15 K, a1 = 5	1163.5	–	21.91
348.15 K, a1 = 8	1168.8	–	18.68
348.15 K, a1 = 10	1170.7	–	17.36
348.15 K, a1 = 15	1170.7	–	17.36
353.15 K, a1 = 1.3	1133.9	–	41.4
353.15 K, a1 = 1.5	1140.7	–	34.08
353.15 K, a1 = 2	1144.3	–	29.46
353.15 K, a1 = 2.5	1148.3	–	26.41
353.15 K, a1 = 3	1151.5	–	23.01
353.15 K, a1 = 3.5	1154.2	–	21.32
353.15 K, a1 = 5	1159.8	–	18.2
353.15 K, a1 = 8	1164.8	–	15.49
353.15 K, a1 = 10	1166.7	–	14.38
353.15 K, a1 = 15	1166.7	–	14.38
358.15 K, a1 = 1.3	1131.1	–	34.75
358.15 K, a1 = 1.5	1137.7	–	28.64
358.15 K, a1 = 2	1141.2	–	24.79
358.15 K, a1 = 2.5	1145.1	–	22.22
358.15 K, a1 = 3	1148.1	–	19.37
358.15 K, a1 = 3.5	1150.9	–	17.94
358.15 K, a1 = 5	1156.1	–	15.29
358.15 K, a1 = 8	1160.9	–	13.01
358.15 K, a1 = 10	1162.7	–	12.05
358.15 K, a1 = 15	1162.7	–	12.05
363.15 K, a1 = 1.3	1128.3	–	29.44
363.15 K, a1 = 1.5	1134.7	–	24.31
363.15 K, a1 = 2	1138.1	–	21.08
363.15 K, a1 = 2.5	1141.9	–	18.89
363.15 K, a1 = 3	1144.7	–	16.45
363.15 K, a1 = 3.5	1147.4	–	15.29
363.15 K, a1 = 5	1152.3	–	12.99
363.15 K, a1 = 8	1157.1	–	11.05
363.15 K, a1 = 10	1158.6	–	10.23
363.15 K, a1 = 15	1158.6	–	10.23
